Measured values taken from patent US11357230B2, “Herbicidal amides” (FMC Corporation, priority 2017, dated 2022).

Legend:
Format in all cases: in vivo
[1] = system: ragweed (common ragweed, Ambrosia elatior); assay: Test A postemergence, ragweed; details: approximately 10 d
Procedure, shortened: (§1)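 Visual ratings from 0 (no effect) to 100 (complete control) compared treated pots with untreated ones roughly 10 d after application. Chemicals with a surfactant in a non-phytotoxic solvent were sprayed onto soil after seeding into loam plus sand, or onto plants at the one- to two-leaf stage grown in the same mix.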

[2] = system: pigweed (Amaranthus retroflexus); assay: Test A postemergence, pigweed; details: approximately 10 d
Procedure, shortened: as §1

[3] = system: ragweed (common ragweed, Ambrosia elatior); assay: Test A preemergence, ragweed; details: approximately 10 d
Procedure, shortened: (§2)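 Compounds were applied before emergence to seeded pots of loam and sand, or after emergence to plants 2 to 10 cm tall in the same soil. Injury was rated visually about 10 d later relative to untreated controls, where 100 indicates complete control.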

[4] = system: blackgrass (Alopecurus myosuroides); assay: Test A postemergence, blackgrass; details: approximately 10 d
Procedure, shortened: as §1

[5] = system: barnyardgrass (Echinochloa crus-galli); assay: Test B flooded paddy test, barnyardgrass; details: 250 g ai/ha, Flood (paddy water), 13 to 15 d
Procedure, shortened: (§3)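 Ratings use a 0-100 visual scale, where 100 is complete control, and compare treated plants with controls after 13 to 15 d of greenhouse growth. Compound went straight into paddy water kept 3 cm over the soil surface, applied to seedlings at the 2-leaf stage.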

[6] = system: kochia (Kochia scoparia); assay: Test A preemergence, kochia; details: approximately 10 d
Procedure, shortened: as §2

[7] = system: foxtail, green (green foxtail, Setaria viridis); assay: Test A preemergence, green foxtail; details: approximately 10 d
Text: (§4) Seeds of plant species selected from barnyardgrass (Echinochloa crus-galli), kochia (Kochia scoparia), ragweed (common ragweed, Ambrosia elatior), ryegrass, Italian (Italian ryegrass, Lolium multiflorum), foxtail, green (green foxtail, Setaria viridis), and pigweed (Amaranthus retroflexus) were planted into a blend of loam soil and sand and treated preemergence with a directed soil spray using test chemicals formulated in a non-phytotoxic solvent mixture which included a surfactant. At the same time, plants selected from these weed species and also wheat (Triticum aestivum), corn (Zea mays), blackgrass (Alopecurus myosuroides), and galium (catchweed bedstraw, Galium aparine) were planted in pots containing the same blend of loam soil and sand and treated with postemergence applications of test chemicals formulated in the same manner. Plants ranged in height from 2 to 10 cm and were in the one- to two-leaf stage for the postemergence treatment. Treated plants and untreated controls were maintained in a greenhouse for approximately 10 d, after which time all treated plants were compared to untreated controls and visually evaluated for injury. Plant response ratings, summarized in Table A, are based on a 0 to 100 scale where 0 is no effect and 100 is complete control. A dash (-) response means no test result.

[8] = system: wheat (Triticum aestivum); assay: Test A postemergence, wheat; details: approximately 10 d
Procedure, shortened: as §1

[9] = system: rice (Oryza sativa); assay: Test B flooded paddy test, rice; details: 250 g ai/ha, Flood (paddy water), 13 to 15 d
Procedure, shortened: as §3

[10] = system: ryegrass, Italian (Italian ryegrass, Lolium multiflorum); assay: Test A postemergence, Italian ryegrass; details: approximately 10 d
Procedure, shortened: as §1

[11] = system: pigweed (Amaranthus retroflexus); assay: Test A preemergence, pigweed; details: approximately 10 d
Procedure, shortened: as §2

[12] = system: corn (Zea mays); assay: Test A postemergence, corn; details: approximately 10 d
Procedure, shortened: as §1

[13] = system: galium (catchweed bedstraw, Galium aparine); assay: Test A postemergence, galium; details: approximately 10 d
Procedure, shortened: as §1

[14] = system: ducksalad (Heteranthera limosa); assay: Test B flooded paddy test, ducksalad; details: 250 g ai/ha, Flood (paddy water), 13 to 15 d
Procedure, shortened: as §3

[15] = system: sedge, umbrella (small-flower umbrella sedge, Cyperus difformis); assay: Test B flooded paddy test, umbrella sedge; details: 250 g ai/ha, Flood (paddy water), 13 to 15 d
Procedure, shortened: as §3

[16] = system: foxtail, green (green foxtail, Setaria viridis); assay: Test A postemergence, green foxtail; details: approximately 10 d
Text: as §4

[17] = system: barnyardgrass (Echinochloa crus-galli); assay: Test A preemergence, barnyardgrass; details: approximately 10 d
Procedure, shortened: as §2

[18] = system: barnyardgrass (Echinochloa crus-galli); assay: Test A postemergence, barnyardgrass; details: approximately 10 d
Procedure, shortened: as §1

[19] = system: ryegrass, Italian (Italian ryegrass, Lolium multiflorum); assay: Test A preemergence, Italian ryegrass; details: approximately 10 d
Procedure, shortened: as §2

[20] = system: kochia (Kochia scoparia); assay: Test A postemergence, kochia; details: approximately 10 d
Procedure, shortened: as §1

CN1C[C@H](c2ccc(C(F)(F)F)cc2)[C@@H](C(=O)Nc2cccc(F)c2F)C1=NNC(=O)C(C)(C)C [Compound 1, 2-[(3R,4S)-3-[[(2,3-difluorophenyl)amino]carbonyl]-1-methyl-4-[4-(trifluoromethyl)phenyl]-2-pyrrolidinylidene]hydrazide 2,2-dimethylpropanoic Acid]
0: Plant response rating (0 to 100 scale, 0 is no effect, 100 is complete control) ([1]; 31 g ai/ha) | Plant response rating (0 to 100 scale, 0 is no effect, 100 is complete control) ([1]; 125 g ai/ha) | Plant response rating (0 to 100 scale, 0 is no effect, 100 is complete control) ([2]; 31 g ai/ha) | Plant response rating (0 to 100 scale, 0 is no effect, 100 is complete control) ([2]; 125 g ai/ha) | Plant response rating (0 to 100 scale, 0 is no effect, 100 is complete control) ([3]; 31 g ai/ha) | Plant response rating (0 to 100 scale, 0 is no effect, 100 is complete control) ([6]; 31 g ai/ha) | Plant response rating (0 to 100 scale, 0 is no effect, 100 is complete control) ([8]; 31 g ai/ha) | Plant response rating (scale of 0 to 100, 0 is no effect, 100 is complete control) [9] | Plant response rating (0 to 100 scale, 0 is no effect, 100 is complete control) ([12]; 31 g ai/ha) | Plant response rating (0 to 100 scale, 0 is no effect, 100 is complete control) ([13]; 31 g ai/ha) | Plant response rating (scale of 0 to 100, 0 is no effect, 100 is complete control) [15] | Plant response rating (0 to 100 scale, 0 is no effect, 100 is complete control) ([19]; 31 g ai/ha) | Plant response rating (0 to 100 scale, 0 is no effect, 100 is complete control) ([19]; 125 g ai/ha) | Plant response rating (0 to 100 scale, 0 is no effect, 100 is complete control) ([20]; 31 g ai/ha) | Plant response rating (0 to 100 scale, 0 is no effect, 100 is complete control) ([20]; 125 g ai/ha)
65: Plant response rating (scale of 0 to 100, 0 is no effect, 100 is complete control) [5]
30: Plant response rating (0 to 100 scale, 0 is no effect, 100 is complete control) ([8]; 125 g ai/ha) | Plant response rating (scale of 0 to 100, 0 is no effect, 100 is complete control) [14]
20: Plant response rating (0 to 100 scale, 0 is no effect, 100 is complete control) ([10]; 31 g ai/ha)
100: Plant response rating (0 to 100 scale, 0 is no effect, 100 is complete control) ([3]; 125 g ai/ha) | Plant response rating (0 to 100 scale, 0 is no effect, 100 is complete control) ([7]; 125 g ai/ha) | Plant response rating (0 to 100 scale, 0 is no effect, 100 is complete control) ([17]; 125 g ai/ha)
50: Plant response rating (0 to 100 scale, 0 is no effect, 100 is complete control) ([4]; 125 g ai/ha) | Plant response rating (0 to 100 scale, 0 is no effect, 100 is complete control) ([7]; 31 g ai/ha) | Plant response rating (0 to 100 scale, 0 is no effect, 100 is complete control) ([11]; 31 g ai/ha)
80: Plant response rating (0 to 100 scale, 0 is no effect, 100 is complete control) ([16]; 125 g ai/ha) | Plant response rating (0 to 100 scale, 0 is no effect, 100 is complete control) ([17]; 31 g ai/ha) | Plant response rating (0 to 100 scale, 0 is no effect, 100 is complete control) ([18]; 125 g ai/ha)
60: Plant response rating (0 to 100 scale, 0 is no effect, 100 is complete control) ([6]; 125 g ai/ha) | Plant response rating (0 to 100 scale, 0 is no effect, 100 is complete control) ([10]; 125 g ai/ha)
40: Plant response rating (0 to 100 scale, 0 is no effect, 100 is complete control) ([12]; 125 g ai/ha) | Plant response rating (0 to 100 scale, 0 is no effect, 100 is complete control) ([16]; 31 g ai/ha) | Plant response rating (0 to 100 scale, 0 is no effect, 100 is complete control) ([18]; 31 g ai/ha)
10: Plant response rating (0 to 100 scale, 0 is no effect, 100 is complete control) ([4]; 31 g ai/ha) | Plant response rating (0 to 100 scale, 0 is no effect, 100 is complete control) ([13]; 125 g ai/ha)
90: Plant response rating (0 to 100 scale, 0 is no effect, 100 is complete control) ([11]; 125 g ai/ha)
